Measurements: patent US10011572B2, “Monocyclic isoxazolines as inhibitors of cholesterol ester transfer protein” (Merck Sharp & Dohme Corp., priority 2014, dated 2018)

How the values were obtained:
[1] = molecular target: T1, endogenous CETP from serum (Homo sapiens, UniProt P11597); experiment: RTA assay in 95% human serum (in vitro radioactive assay of CETP-catalyzed CE and TG transfer, endogenous CETP); type: biochemical; details: read-out: IC50 (nM) RTA with 95% HS
T1 construct: yielding a concentration of approximately 15 nM endogenous CETP in the assay; from tissue; host or cells: human serum
T1 sequence (P11597 18-493): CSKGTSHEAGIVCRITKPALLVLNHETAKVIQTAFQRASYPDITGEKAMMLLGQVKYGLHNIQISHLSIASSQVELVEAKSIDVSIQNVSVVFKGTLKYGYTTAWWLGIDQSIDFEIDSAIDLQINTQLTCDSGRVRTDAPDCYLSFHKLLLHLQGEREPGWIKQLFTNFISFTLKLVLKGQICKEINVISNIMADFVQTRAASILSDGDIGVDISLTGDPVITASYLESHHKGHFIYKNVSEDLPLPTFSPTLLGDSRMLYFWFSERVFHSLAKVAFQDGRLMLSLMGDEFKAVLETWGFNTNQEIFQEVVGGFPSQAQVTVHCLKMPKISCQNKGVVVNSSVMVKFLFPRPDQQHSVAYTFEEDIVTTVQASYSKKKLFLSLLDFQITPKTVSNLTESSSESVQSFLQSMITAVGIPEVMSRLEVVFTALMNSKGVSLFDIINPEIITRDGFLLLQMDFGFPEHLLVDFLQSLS
Method: In Vitro Radioactive Assays of CETP-Catalyzed CE and TG Transfer (RTA Assay)
Reagents and sources are: [3H] cholesteryl oleate (GE #TRK.886), [3H] Triolein (Perkin-Elmer NET-431), Butylated hydroxyl toluene (Aldrich, #D4740-4), DOPC (Sigma, # P6354), Sodium Bromide (Fisher scientific #S255-500), PEG 8000 (Fisher, #BP233-1), and human HDL (Intracel Corp #RP-036).
An in vitro assay for determining IC50's to identify compounds that inhibit CETP transfer activity is performed based on a modification of a published method (Morton and Zilversmit, (1981) A plasma inhibitor of triglyceride and cholesteryl ester transfer activities, J. Biol. Chem. 256(23), 11992-11995). The ability of inhibitors to alter CETP activity is performed using two different assays: one using recombinant CETP and one using an endogenous plasma source of CETP. Both assays measure the transfer of [3H] cholesteryl oleate or [3H] triolein from exogenous LDL to HDL.
Radiolabeled donor particles are generated by first combining 100 μl of 200 μM butylated hydroxyl toluene in CHCl3, 216 μL of 21.57 mM DOPC in EtOH, and either 500 μCi [3H]-triolein (Perkin Elmer #NET-431) or 500 μCi [3H]-cholesteryl oleate (GE #TRK886) in a glass tube. Reagents are mixed, dried under nitrogen, and then resuspended in 2 mL of 50 mM Tris, 27 μM EDTA at pH 7.4. After a brief vortex, the solution is sonicated until clear and mixed with 20 mL of fresh human serum. The mixture is incubated overnight at 37° C. The [3H] labeled LDL substrate is separated at 1.063 g/ml density by sequential ultracentrifugal flotation in NaBr according to the method of Havel, Eder, et al., 1955, and Chapman, Goldstein, et al., 1981. Once isolated the particles are dialyzed 3× in CETP buffer (50 mM Tris, pH 7.4, 100 mM NaCl, 1 mM EDTA). Human HDL is purchased from Intracel and used as the acceptor particles.
Transfer assays are performed in a 96-well v-bottom polypropylene plate. For the RTA using recombinant CETP (2% RTA), an assay cocktail is prepared with the final concentrations 128 μg/mL HDL, 20 nM rCETP, 2% human serum, and 1×CETP buffer. 1 μL of each test compound diluted in DMSO is added to 47 μL of assay cocktail per well and incubated at 37° C. for 1 hour. To initiate the transfer reaction, 2 μL radiolabeled LDL is added. After an additional 60 min of incubation at 37° C., the transfer action is terminated by precipitation of LDL with an equal volume of 20% WN PEG 8000. The plates are centrifuged at 2000 rpm for 30 minutes at 4° C. A 40 μL aliquot of the HDL-containing supernatant is transferred to a Packard Optiplate™ with 200 μL of MicroScint™ 20. After mixing, plates are counted by liquid scintillation. Counts present in the supernatant for blanks (wells containing only HDL acceptor, CETP buffer and DMSO) are subtracted from those containing test compounds and used to correct for non-specific transfer.
For the transfer assay using endogenous CETP from serum (95% RTA), the same procedure is used except that human serum is added such that a final concentration of serum of 95% of the total assay volume is achieved, yielding a concentration of approximately 15 nM endogenous CETP in the assay. This is then combined with HDL and CETP buffer and the reaction proceeds as above and is terminated as described.
Comparison of the counts of samples with inhibitors to an uninhibited (DMSO only) positive control yield a percent inhibition. A plot of percent inhibition vs. log of inhibitor concentration, fit to a Sigmoidal 4 parameter equation is used to calculate IC50.
Starting materials are commercially available or are made using known procedures or as shown below. The examples may be synthesized according to the general schemes provided below and by using the synthetic intermediates that are described. The data reported for the examples below were obtained using the RTA assay in 95% human serum.

[2] = anacetrapib with baseline statin therapy compared with patients treated with just a statin; cited from earlier work
[3] = Phase III outcomes trial, cited from earlier work
[4] = torcetrapib and atorvastatin concomitantly compared with atorvastatin alone; cited from earlier work

Question: For COc1ncc(-c2ccc(C(=O)O)cc2C)cc1-c1ccc(C(F)(F)F)cc1CC1=NO[C@H](c2cc(C(F)(F)F)cc(C(F)(F)F)c2)[C@@H]1C [Example 14, 4-(5-(2-(((4R,5S)-5-(3,5-bis(trifluoromethyl)phenyl)-4-methyl-4,5-dihydroisoxazol-3-yl)methyl)-4-(trifluoromethyl)phenyl)-6-methoxypyridin-3-yl)-3-methylbenzoic acid], which IC50 [1] is on record?
Answer: 169 nM

Question: For COc1cc(F)c(C(C)C)cc1-c1ccc(C(F)(F)F)cc1CN1C(=O)O[C@H](c2cc(C(F)(F)F)cc(C(F)(F)F)c2)[C@@H]1C [anacetrapib], which “decrease of LDL-C” value [2] is on record?
Answer: 40%

Question: And the “increase of HDL-C” value [2]?
Answer: 138%

Question: Which “clinical benefit (interim data)” value ([3]; terminated early) does the source give for CCC(CC)CC1(C(=O)Nc2ccccc2SC(=O)C(C)C)CCCCC1 [dalcetrapib] here?
Answer: did not show a clinical benefit

Question: And the safety issues [3]?
Answer: no safety issues detected

Question: For CCOC(=O)N1c2ccc(C(F)(F)F)cc2[C@@H](N(Cc2cc(C(F)(F)F)cc(C(F)(F)F)c2)C(=O)OC)C[C@H]1CC [torcetrapib], which mortality [4] is on record?
Answer: higher incidence of mortality
